Drawing on patent US20220009920A1 (GB005, Inc., priority 2020, published 2022), this text covers inhibition for three molecules.

The structures appear in SMILES notation.

As usually defined, the inhibition is the drop in the measured response relative to a control, in per cent.

Assay in all cases: Large panel kinase profiling
Type in all cases: biochemical
Common to all, as to settings: 1 μM test article, 1 mM ATP

The target of one experiment is AKT2 (Homo sapiens, UniProt P31751). The essentials:
(§1)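 Fluorescence intensity (Ex 360 nm, Em 485 nm) was monitored continuously, once per minute, in PhosphoSens CSox-Sensor kinase reactions held at 30° C. Compound was present at 1 μM and ATP at 1 mM.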

The target of the next experiment is T1, BRSK2 (Homo sapiens, UniProt Q8IWQ3).
T1 sequence (Q8IWQ3 1-736): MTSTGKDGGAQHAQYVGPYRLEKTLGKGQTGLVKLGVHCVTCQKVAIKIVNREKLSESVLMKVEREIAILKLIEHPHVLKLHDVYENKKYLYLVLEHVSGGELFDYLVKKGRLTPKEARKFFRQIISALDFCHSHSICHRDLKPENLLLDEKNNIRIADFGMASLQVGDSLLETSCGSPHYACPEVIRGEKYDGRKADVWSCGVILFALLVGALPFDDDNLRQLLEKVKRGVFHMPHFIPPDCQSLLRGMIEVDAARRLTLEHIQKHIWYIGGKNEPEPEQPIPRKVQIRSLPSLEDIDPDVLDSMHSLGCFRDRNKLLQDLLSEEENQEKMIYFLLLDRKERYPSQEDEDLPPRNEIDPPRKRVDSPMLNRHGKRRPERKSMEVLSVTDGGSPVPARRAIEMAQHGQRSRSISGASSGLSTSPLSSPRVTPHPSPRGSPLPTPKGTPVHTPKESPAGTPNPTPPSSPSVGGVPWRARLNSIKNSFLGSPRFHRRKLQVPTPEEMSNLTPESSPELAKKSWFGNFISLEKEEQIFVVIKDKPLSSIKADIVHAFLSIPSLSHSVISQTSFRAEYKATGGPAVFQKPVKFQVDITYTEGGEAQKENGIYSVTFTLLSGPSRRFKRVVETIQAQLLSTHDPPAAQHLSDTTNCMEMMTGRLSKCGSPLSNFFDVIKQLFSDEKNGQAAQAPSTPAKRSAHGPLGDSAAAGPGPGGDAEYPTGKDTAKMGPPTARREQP
Summed up: as §1

In another experiment the target is T2, CAMK2D (Homo sapiens, UniProt Q13557).
T2 construct: AssayQuant Technologies, Inc. (ran the panel)
T2 sequence (Q13557 whole entry, species assumed): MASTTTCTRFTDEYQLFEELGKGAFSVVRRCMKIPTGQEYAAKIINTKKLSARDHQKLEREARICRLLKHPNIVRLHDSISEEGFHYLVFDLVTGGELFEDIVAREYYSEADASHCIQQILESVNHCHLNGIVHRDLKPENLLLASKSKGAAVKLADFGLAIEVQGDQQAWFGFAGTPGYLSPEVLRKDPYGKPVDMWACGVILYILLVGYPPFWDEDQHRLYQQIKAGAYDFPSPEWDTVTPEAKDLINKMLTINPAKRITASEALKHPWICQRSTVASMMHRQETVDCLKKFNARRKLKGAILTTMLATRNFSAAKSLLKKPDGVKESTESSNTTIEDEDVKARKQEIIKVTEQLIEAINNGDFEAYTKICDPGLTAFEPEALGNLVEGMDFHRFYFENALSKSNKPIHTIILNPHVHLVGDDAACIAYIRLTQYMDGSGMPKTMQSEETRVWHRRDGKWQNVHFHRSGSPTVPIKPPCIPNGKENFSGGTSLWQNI
The essentials: as §1

For the next experiment, the target named is T3, NEK2 (Homo sapiens, UniProt P51955).
T3 construct: AssayQuant Technologies, Inc. (assay service)
T3 sequence (P51955 1-445): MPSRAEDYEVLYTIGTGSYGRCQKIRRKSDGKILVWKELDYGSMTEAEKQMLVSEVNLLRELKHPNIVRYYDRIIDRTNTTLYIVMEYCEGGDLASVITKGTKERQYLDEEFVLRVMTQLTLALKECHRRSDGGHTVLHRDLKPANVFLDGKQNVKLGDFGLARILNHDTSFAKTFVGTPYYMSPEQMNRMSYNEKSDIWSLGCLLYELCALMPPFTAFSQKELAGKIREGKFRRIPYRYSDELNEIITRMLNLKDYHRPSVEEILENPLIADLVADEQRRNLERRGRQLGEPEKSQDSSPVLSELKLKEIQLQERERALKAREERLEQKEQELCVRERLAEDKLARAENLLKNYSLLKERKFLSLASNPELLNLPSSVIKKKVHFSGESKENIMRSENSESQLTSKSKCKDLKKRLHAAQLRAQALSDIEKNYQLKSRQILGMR
The essentials: as §1

For a further experiment, the target named is PASK (Homo sapiens, UniProt Q96RG2). The essentials: as §1
Sequence of PASK (Q96RG2 whole entry): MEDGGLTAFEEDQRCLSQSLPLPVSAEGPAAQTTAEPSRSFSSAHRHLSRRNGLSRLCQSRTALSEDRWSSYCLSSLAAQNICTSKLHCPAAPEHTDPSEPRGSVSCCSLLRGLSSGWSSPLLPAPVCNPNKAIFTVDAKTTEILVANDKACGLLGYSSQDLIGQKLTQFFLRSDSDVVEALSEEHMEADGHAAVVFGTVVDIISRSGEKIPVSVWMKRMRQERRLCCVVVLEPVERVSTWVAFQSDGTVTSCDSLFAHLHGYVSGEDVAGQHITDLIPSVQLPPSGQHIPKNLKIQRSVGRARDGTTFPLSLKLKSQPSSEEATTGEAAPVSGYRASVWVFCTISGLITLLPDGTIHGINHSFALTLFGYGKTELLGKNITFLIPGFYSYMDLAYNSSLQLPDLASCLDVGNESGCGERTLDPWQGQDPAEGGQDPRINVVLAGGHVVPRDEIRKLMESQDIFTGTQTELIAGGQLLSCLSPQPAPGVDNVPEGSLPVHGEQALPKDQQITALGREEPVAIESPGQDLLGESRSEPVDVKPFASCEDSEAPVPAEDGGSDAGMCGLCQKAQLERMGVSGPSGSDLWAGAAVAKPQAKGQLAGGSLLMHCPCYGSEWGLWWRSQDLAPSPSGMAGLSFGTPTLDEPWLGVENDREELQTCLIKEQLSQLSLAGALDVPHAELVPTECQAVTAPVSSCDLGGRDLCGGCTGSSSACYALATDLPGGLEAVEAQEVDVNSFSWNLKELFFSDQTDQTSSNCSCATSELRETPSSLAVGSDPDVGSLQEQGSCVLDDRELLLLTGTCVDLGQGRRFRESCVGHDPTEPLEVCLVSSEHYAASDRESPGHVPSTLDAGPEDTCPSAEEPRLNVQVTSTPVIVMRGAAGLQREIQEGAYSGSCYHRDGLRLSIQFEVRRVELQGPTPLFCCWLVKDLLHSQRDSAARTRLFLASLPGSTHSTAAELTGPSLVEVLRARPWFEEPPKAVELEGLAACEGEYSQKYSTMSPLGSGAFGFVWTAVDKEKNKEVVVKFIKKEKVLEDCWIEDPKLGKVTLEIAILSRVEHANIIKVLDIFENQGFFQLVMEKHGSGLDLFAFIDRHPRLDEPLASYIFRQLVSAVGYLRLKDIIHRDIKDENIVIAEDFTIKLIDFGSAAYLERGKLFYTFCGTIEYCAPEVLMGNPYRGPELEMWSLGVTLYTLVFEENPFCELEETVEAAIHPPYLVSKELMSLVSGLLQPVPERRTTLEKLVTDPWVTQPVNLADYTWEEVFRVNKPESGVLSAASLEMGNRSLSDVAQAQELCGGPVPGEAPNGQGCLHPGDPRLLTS
The target of a further experiment is T4, TYK2(JH1) (Homo sapiens, UniProt P29597).
T4 construct: TYK2(JH1); AssayQuant Technologies, Inc. (contract laboratory that ran the panel)
T4 sequence (P29597 897-1176 limits assumed): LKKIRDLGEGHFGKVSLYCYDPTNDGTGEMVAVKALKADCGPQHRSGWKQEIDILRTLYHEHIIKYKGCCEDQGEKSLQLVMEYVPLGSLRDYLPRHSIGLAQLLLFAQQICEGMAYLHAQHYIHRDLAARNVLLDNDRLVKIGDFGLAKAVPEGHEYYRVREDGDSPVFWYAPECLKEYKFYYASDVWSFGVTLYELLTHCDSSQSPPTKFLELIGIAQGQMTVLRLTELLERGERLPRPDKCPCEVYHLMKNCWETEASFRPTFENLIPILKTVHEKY
The essentials: as §1

For another experiment, the target named is T5, TYK2(JH1JH2) (Homo sapiens, UniProt P29597).
T5 construct: TYK2(JH1JH2); AssayQuant Technologies, Inc. (contract laboratory that ran the panel)
T5 sequence (P29597 575-1187 limits assumed, species assumed): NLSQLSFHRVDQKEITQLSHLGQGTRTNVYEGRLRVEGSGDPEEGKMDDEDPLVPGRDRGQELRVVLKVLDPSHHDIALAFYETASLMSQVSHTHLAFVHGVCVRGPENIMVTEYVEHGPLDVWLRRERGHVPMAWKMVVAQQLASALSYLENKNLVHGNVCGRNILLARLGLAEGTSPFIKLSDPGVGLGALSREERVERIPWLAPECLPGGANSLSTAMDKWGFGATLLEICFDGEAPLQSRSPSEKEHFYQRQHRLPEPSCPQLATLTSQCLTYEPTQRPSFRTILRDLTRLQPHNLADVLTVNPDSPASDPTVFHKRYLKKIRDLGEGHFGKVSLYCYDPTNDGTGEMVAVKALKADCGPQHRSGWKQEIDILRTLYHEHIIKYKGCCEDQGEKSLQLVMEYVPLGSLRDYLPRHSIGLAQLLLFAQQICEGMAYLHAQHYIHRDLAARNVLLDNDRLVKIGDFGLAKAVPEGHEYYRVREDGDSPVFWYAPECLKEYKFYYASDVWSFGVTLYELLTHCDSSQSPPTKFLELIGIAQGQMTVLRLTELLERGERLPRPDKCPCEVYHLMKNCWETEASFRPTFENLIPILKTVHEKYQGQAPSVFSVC
The essentials:
as §1

Sequence of AKT2 (P31751 whole entry): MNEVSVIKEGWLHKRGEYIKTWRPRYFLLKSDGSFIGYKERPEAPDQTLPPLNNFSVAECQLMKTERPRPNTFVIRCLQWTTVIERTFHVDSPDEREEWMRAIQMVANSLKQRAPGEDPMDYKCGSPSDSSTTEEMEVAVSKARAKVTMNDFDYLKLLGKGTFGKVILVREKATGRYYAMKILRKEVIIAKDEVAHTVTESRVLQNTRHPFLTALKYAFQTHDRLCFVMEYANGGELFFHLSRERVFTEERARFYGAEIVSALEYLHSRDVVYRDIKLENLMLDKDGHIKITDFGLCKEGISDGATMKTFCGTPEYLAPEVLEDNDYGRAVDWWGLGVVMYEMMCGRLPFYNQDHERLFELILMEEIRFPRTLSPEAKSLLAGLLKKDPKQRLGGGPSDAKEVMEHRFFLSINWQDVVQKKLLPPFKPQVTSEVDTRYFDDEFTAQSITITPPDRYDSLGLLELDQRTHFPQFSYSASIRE

As to `C=CC(=O)N1CCCC(c2c(F)cc(C(N)=O)c3[nH]c4c(c23)CCCCC4)C1` (single isomer, unassigned) [Compound 5-6], the inhibition at 1 µM at AKT2 is 0.5%; at BRSK2 it was -31.2%; against CAMK2D, 1.1%; at NEK2 it was -26.5%; on PASK, 1.8%; against TYK2(JH1), -2.7%. Also, the inhibition at 1 µM at TYK2(JH1JH2) was determined as 18.9%.

Consider `C=CC(=O)N1CCC[C@@H](c2c(F)cc(C(N)=O)c3[nH]c4c(c23)CC2(CC4)CC2)C1` [Compound 6-2, (S)-5-(1-acryloylpiperidin-3-yl)-6-fluoro-1,2,4,9-tetrahydrospiro[carbazole-3,1′-cyclopropane]-8-carboxamide], for which the inhibition at 1 µM on AKT2 was 0.4%; against BRSK2 it was -5.7%; against CAMK2D, 8.4%; against NEK2 it was -1.4%; at PASK, -8%; against TYK2(JH1) it was -1.1%. For the same molecule, at TYK2(JH1JH2), the inhibition at 1 µM is -27.1%.

As for `C=CC(=O)N1CCC[C@@H](c2c(F)cc(C(N)=O)c3[nH]c4c(c23)CCC4)C1` [Compound 10-2, (S)-8-(1-acryloylpiperidin-3-yl)-7-fluoro-1,2,3,4-tetrahydrocyclo-penta[b]indole-5-carboxamide], the inhibition at 1 µM against AKT2 was 11.9%; against BRSK2 it was 1.8%; on CAMK2D it was -10.7%; on NEK2 it was 10.6%; at PASK, -8.5%; against TYK2(JH1), 3.5%. At TYK2(JH1JH2), the inhibition at 1 µM was 28.6%.
